Assay results: ChEMBL document CHEMBL5550127, “1,2,3-Triazole-totarol conjugates as potent PIP5K1α lipid kinase inhibitors” (Bioorg Med Chem, 2024)
Values belong to the molecule of their own block, whether it stands above or below them. Calls of active or inactive are those of the source. The calls are words filed in the database; no cut-off is given here.

How the values were obtained:
[1] = tested on: LNCaP; assay: Antiproliferative activity against human LNCaP cells assessed as inhibition of cell growth by measuring negative AUC values at 20 uM measured after 48 hrs by IncuCyte live-cell imaging analysis; type: functional, cell-based
[2] = tested on: PC-3; assay: Antiproliferative activity against human PC-3 cells assessed as inhibition of cell growth by measuring negative AUC values at 20 uM measured after 48 hrs by IncuCyte live-cell imaging analysis; type: functional, cell-based
[3] = tested on: DU-145; assay: Antiproliferative activity against human DU-145 cells assessed as inhibition of cell growth by measuring negative AUC values at 20 uM measured after 48 hrs by IncuCyte live-cell imaging analysis; type: functional, cell-based
[4] = tested on: LNCaP; assay: Antiproliferative activity against human LNCaP cells assessed as inhibition of cell growth by measuring reduction in cell confluence at 10 to 20 uM measured every 2 hrs for 72 hrs by IncuCyte live-cell imaging analysis; type: functional, cell-based; details: dose 10-20 µM
[5] = tested on: PC-3; assay: Antiproliferative activity against human PC-3 cells assessed as inhibition of cell growth by measuring reduction in cell confluence at 10 to 20 uM measured every 2 hrs for 72 hrs by IncuCyte live-cell imaging analysis; type: functional, cell-based; details: dose 10-20 µM
[6] = tested on: DU-145; assay: Antiproliferative activity against human DU-145 cells assessed as inhibition of cell growth by measuring reduction in cell confluence at 10 to 20 uM measured every 2 hrs for 72 hrs by IncuCyte live-cell imaging analysis; type: functional, cell-based; details: dose 10-20 µM
[7] = tested on: LNCaP; assay: Antiproliferative activity against human LNCaP cells assessed as inhibition of cell growth by measuring reduction in cell confluence at 1 to 5 uM measured every 2 hrs for 72 hrs by IncuCyte live-cell imaging analysis; type: functional, cell-based; details: dose 1-5 µM
[8] = tested on: DU-145; assay: Antiproliferative activity against human DU-145 cells assessed as inhibition of cell growth by measuring reduction in cell confluence at 1 to 5 uM measured every 2 hrs for 72 hrs by IncuCyte live-cell imaging analysis; type: functional, cell-based; details: dose 1-5 µM
[9] = tested on: PC-3; assay: Induction of morphological changes in human PC-3 cells assessed as change in number of cells at 10 uM measured after 0 to 72 hrs by IncuCyte live-cell imaging based phase contrast microscopic analysis; type: functional; details: time 0-72 hrs
[10] = tested on: PC-3; assay: Induction of morphological changes in human PC-3 cells assessed as change in cell shape at 10 uM measured after 0 to 72 hrs by IncuCyte live-cell imaging based phase contrast microscopic analysis; type: functional; details: time 0-72 hrs
[11] = tested on: DU-145; assay: Induction of morphological changes in human DU-145 cells assessed as change in number of cells at 10 uM measured after 0 to 72 hrs by IncuCyte live-cell imaging based phase contrast microscopic analysis; type: functional; details: time 0-72 hrs
[12] = tested on: DU-145; assay: Induction of morphological changes in human DU-145 cells assessed as change in cell shape at 10 uM measured after 0 to 72 hrs by IncuCyte live-cell imaging based phase contrast microscopic analysis; type: functional; details: time 0-72 hrs
[13] = tested on: LNCaP; assay: Induction of morphological changes in human LNCaP cells assessed as change in number of cells at 10 uM measured after 0 to 72 hrs by IncuCyte live-cell imaging based phase contrast microscopic analysis; type: functional; details: time 0-72 hrs
[14] = tested on: LNCaP; assay: Induction of morphological changes in human LNCaP cells assessed as change in cell shape at 10 uM measured after 0 to 72 hrs by IncuCyte live-cell imaging based phase contrast microscopic analysis; type: functional; details: time 0-72 hrs
[15] = tested on: LNCaP; assay: cells; details: Homo sapiens, 72 h
Description: Antiproliferative activity against human LNCaP cells assessed as inhibition of cell growth measured after 72 hrs by IncuCyte live-cell imaging analysis

[16] = tested on: PC-3; assay: cells; details: Homo sapiens, PC-3, 72 h
Description: Antiproliferative activity against human PC-3 cells assessed as inhibition of cell growth measured after 72 hrs by IncuCyte live-cell imaging analysis

[17] = tested on: DU-145; assay: cells; details: Homo sapiens, DU-145, 72 h
Description: Antiproliferative activity against human DU-145 cells assessed as inhibition of cell growth measured after 72 hrs by IncuCyte live-cell imaging analysis

[18] = molecular target: Phosphatidylinositol 4-phosphate 5-kinase type-1 alpha (Homo sapiens) (UniProt Q99755); assay: (§1) Inhibition of recombinant human PIP5K1alpha expressed in Escherichia coli BL21 (DE3) using phosphatidylinositol-4-phosphate as substrate at 1 to 10 uM preincubated for 10 mins followed by substrate and ATP addition and further incubated under dark condition with constant shaking for 30 mins by capillary electrophoresis; details: dose 1-10 µM, time 40.0 min
[19] = molecular target: Casein kinase 2 (Homo sapiens, UniProt P67870+P68400+P19784+Q8NEV1); assay: Inhibition of CK2 (unknown origin) using RRRDDDSDDD-EDANS as substrate measured after 15 mins by capillary electrophoresis; type: protein assay
[20] = molecular target: Phosphatidylinositol 4-phosphate 5-kinase type-1 alpha (Homo sapiens) (UniProt Q99755); assay: as §1, with “at” for “at 1 to”; details: time 40.0 min
[21] = tested on: LNCaP; assay: Antiproliferative activity against human LNCaP cells assessed as inhibition of cell growth by measuring reduction in cell confluence at 20 uM measured every 2 hrs for 48 hrs by IncuCyte live-cell imaging analysis; type: functional, cell-based
[22] = tested on: LNCaP; assay: Antiproliferative activity against human LNCaP cells assessed as inhibition of cell growth by measuring reduction in cell confluence at 5 to 20 uM measured every 2 hrs for 48 hrs by IncuCyte live-cell imaging analysis; type: functional, cell-based; details: dose 5-20 µM

Phosphatidylinositol 4-phosphate 5-kinase type-1 alpha (Homo sapiens), sequence (Q99755 whole entry): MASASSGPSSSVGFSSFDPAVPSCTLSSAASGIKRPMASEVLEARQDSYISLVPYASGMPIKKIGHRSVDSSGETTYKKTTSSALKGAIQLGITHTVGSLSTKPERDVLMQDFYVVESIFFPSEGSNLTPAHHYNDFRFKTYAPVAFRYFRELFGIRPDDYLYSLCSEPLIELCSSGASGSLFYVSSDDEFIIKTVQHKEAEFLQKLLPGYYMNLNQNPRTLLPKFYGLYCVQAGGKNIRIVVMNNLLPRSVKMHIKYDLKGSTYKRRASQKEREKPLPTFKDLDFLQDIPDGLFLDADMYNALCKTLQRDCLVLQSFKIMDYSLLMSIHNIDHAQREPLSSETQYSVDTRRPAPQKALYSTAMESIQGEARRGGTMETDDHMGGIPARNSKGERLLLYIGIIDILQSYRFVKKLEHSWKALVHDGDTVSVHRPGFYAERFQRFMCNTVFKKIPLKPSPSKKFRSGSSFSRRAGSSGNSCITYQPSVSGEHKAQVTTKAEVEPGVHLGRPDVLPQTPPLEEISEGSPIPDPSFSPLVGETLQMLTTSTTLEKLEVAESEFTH

- EC50 [15]: 15.7 µM
- EC50 [16]: 4.89 µM
- EC50 [17]: 8.57 µM
SMILES: CC(C)c1c(OCc2cn(C3=CCC4C(=O)N(CCN(C)C)C(=O)c5cccc3c54)nn2)ccc2c1CC[C@H]1C(C)(C)CCC[C@]21C (stereo partly drawn)
- Activity [1]: Active
- Activity [2]: Active
- Activity [3]: Active
- Activity [4]: Active
- Activity [5]: Active
- Activity [6]: Active
- Activity [7]: inactive
- Activity [8]: inactive
- Activity [9]: Active
- Activity [10]: Active
- Activity [11]: Active
- Activity [12]: Active
- Activity [13]: Active
- Activity [14]: Active

- inhibition [18]: inactive
SMILES: CCCCCCCCCCCn1cc(COc2ccc3c(c2C(C)C)CC[C@H]2C(C)(C)CCC[C@]32C)nn1

- IC50 [19]: 4.1 µM
SMILES: COc1ccc(-n2cc(COc3ccc4c(c3C(C)C)CC[C@H]3C(C)(C)CCC[C@]43C)nn2)cc1

- IC50 [19]: 0.91 µM
SMILES: CC(C)c1c(OCc2cn(-c3cccc([N+](=O)[O-])c3)nn2)ccc2c1CC[C@H]1C(C)(C)CCC[C@]21C

- inhibition [20]: inactive
SMILES: CC(C)c1c(O)ccc2c1CC[C@H]1C(C)(C)CCC[C@]21C
- Activity [21]: inactive

SMILES: CN(C)CCN1C(=O)c2cccc3c(-n4cc(CO)nn4)ccc(c23)C1=O
- Activity [22]: Active
